Test results published in patent US6716858B1, “Methods for inhibiting diabetic complications” (Kansas University Medical Center, priority 1995, dated 2004).
Read-outs that look alike come from different tables or passages of the source.

Assays:
[1] = system: streptozotocin-induced diabetic rat; assay: STZ diabetic rat model, AGEs and crosslinking of collagen; type: in vivo; conditions: for CML, CEL or pentosidine content of kidney collagen / gain in kidney weight / FL in skin collagen, below untreated diabetic animals / decrease of CML, CEL and fluorescence content of skin collagen toward non-diabetic levels / reduction of half-time for digestion of collagen toward normal / body weight / CML concentration in skin collagen / half-time for pepsin digestion of skin collagen / CEL in renal basement membrane collagen / CML in renal basement membrane collagen / Pentosidine in renal basement membrane collagen: diabetic rats; for FL in skin collagen, below untreated diabetic animals: 1 g/L in drinking water, week 28; for decrease of CML, CEL and fluorescence content of skin collagen toward non-diabetic levels / reduction of half-time for digestion of collagen toward normal: 7 months of diabetes; for body weight: 28 weeks; for CML concentration in skin collagen: drug in drinking water, end of study, untreated diabetic 0.124±0.01, non-diabetic 0.057±0.01; for half-time for pepsin digestion of skin collagen: control 90, untreated diabetic 450; for CEL in renal basement membrane collagen: untreated diabetic 0.08 ±0.01; for CML in renal basement membrane collagen: untreated diabetic 0.25 ± 0.04; for Pentosidine in renal basement membrane collagen: untreated diabetic 3.17 ± 1.10; for decrease in collagen-linked fluorescence toward values in non-diabetic rats: skin collagen
Experimental: (§1) Animal studies. Diabetes was induced by a single tail vein injection of 45 mg/kg of STZ in 0.1 M sodium citrate buffer, pH 4.5. Control animals were sham injected with buffer only. Diabetes was confirmed by measuring blood glucose levels at 2 and 3 days after the STZ-injection. Animals with plasma glucose higher than 16 mM were classified as diabetic. The diabetic rats were divided randomly into an untreated diabetic group (n=12) and two diabetic treatment groups, receiving either PM (n=13) or AG (n=12) at 1 g/L in drinking water. Two non-diabetic control groups were included, one receiving no treatment (n=13), the other receiving PM(HCl)2 at 2 g/L in drinking water (n=12); the higher dose of PM in the PM-treated control group was designed to compensate, in part, for the lower water intake of non-diabetic, compared to diabetic animals. All animals were housed individually with a light dark cycle of 12 hours each, and had free access to food and water. To maintain body weight and to limit hyperglycemia, diabetic animals received 3 IU of ultralente insulin (Humulin U, Eli Lilly) three times per week; this was increased to 5 IU after week 15 to adjust for the increase in body weight.
Glycemic control. Glycemia was monitored by measurement of plasma glucose and glycated hemoglobin every four weeks, using a Sigma Trinder assay Kit (Sigma # 315). Blood (non-fasting) was obtained from the tail vein, using heparinized microhematocrit tubes, followed by sedimentation of red blood cells (RBC) in a bench-top microhematocrit centrifuge. A sample of plasma (5 μL) or glucose standard was mixed with 300 μL of reagent in a 96-well microtiter plate. The plate was shaken for 18 min and the absorbance at 490 nm was measured in a Wallac Victor 1420 multilabel counter (Wallac Inc. Gaithersburg, Md.). Glycated hemoglobin (GlcHb) was measured on whole blood by boronate affinity chromatography using a Sigma kit for total glycated hemoglobin (Sigma # 442-B).
Necropsy and tissue sampling. Rats were treated according to the guidelines of the Institutional Animal Care and Use Committee of the University of South Carolina. Blood was drawn from anaesthetized (halothane) rats by heart puncture and transferred into heparinized vacutainer tubes on ice; an aliquot was removed for analysis of glycated hemoglobin. Rats were then killed by over-anesthetization, and liver and kidneys were removed, the kidney decapsulated, and both organs rinsed in PBS buffer, and weighed. The right kidney was cut in half transversely, and one half was removed for fixation for electron and light microscopy. The remainder of the right kidney and the whole left kidney were frozen at −70° C. until processed for isolation of collagen. Abdominal skin (2 cm^2) was also removed, rinsed in phosphate buffered saline (PBS) and stored at −70° C. Blood was separated into plasma and RBC within 30 minutes by centrifugation in a refrigerated benchtop centrifuge. RBCs were lysed in an equal volume of deionized water, and plasma and RBC lysates were stored at −70° C.
Isolation and analysis of collagen. The insoluble fraction of skin collagen was prepared by scraping the skin with a single-edged razor blade to remove hair and adventitious tissue, followed by a series of extractions with 0.5 M NaCl, 0.5 M acetic acid and chloroform/methanol (2:1 v/v), as described previously (Dyer, et al. 1993. J. Clin. Invest. 91:2463-2469). Total renal collagen was prepared from ˜1.5 kidneys by an adaptation of the procedure of Fox et al. (J. Biol. Chem. 256:9313-9315 (1981)). Briefly, kidneys were minced and homogenized with a hand-held glass homogenizer in 10 mL of ice-cold water, containing 1 mM EDTA and 0.05% sodium azide. Remaining intact cells and subcellular organelles were then lysed by addition of another 15 mL of water, followed by incubation for 1 hour at 4° C., then centrifugation of the lysate for 30 minutes at 10,000 rpm at 4° C. in a Beckman (Palo Alto, Calif.) J-21 centrifuge. […]

[2] = Drug and metabolite levels in plasma and urine, STZ diabetic rat study; type: in vivo; conditions: for concentration at 21 week / concentration at 28 weeks: rat, plasma, oral; for concentration at 21 week: week 21, 4 animals, read-out: Pyridoxamine in plasma; for concentration at 28 weeks: diabetic animals
Experimental: as §1
Measurement of drug levels in plasma and urine. PM and AG concentrations in plasma were measured by reverse phase high performance liquid chromatography (RP-HPLC). PM and its B6 vitamers were assayed as described by Sampson and O'Connor (Nutrition Res. 9:259-272 (1989)) and Sakurai et al. (J. Nutr. Sci. Vitaminol. 37:341-348 (1991)), using 293/393 nm excitation and emission wavelengths. AG was quantified at 380 nm as the 4-nitrobenzaldehyde conjugate (Beaven et al. 1969. J. Pharmacol. Exp. Therapeutics 165:14-22).

[3] = system: glycation of ribonuclease A (RNase); assay: Uninterrupted glycation of ribonuclease A with glucose, anti-AGE ELISA; type: biochemical, bovine; conditions: RNase 1 mg/ml, 1.0 M glucose, 6 weeks; inhibitors 0.5, 3, 15 and 50 mM
Experimental: Uninterrupted Glycation with Glucose Bovine serum albumin, ribonuclease A, and human hemoglobin were incubated with glucose at 37° C. in 0.4 M sodium phosphate buffer of pH 7.5 containing 0.02% sodium azide. The protein, glucose (at 1.0 M), and prospective inhibitors (at 0.5, 3, 15 and 50 mM) were introduced into the incubation mixture simultaneously. Solutions were kept in the dark in capped tubes. Aliquots were taken and immediately frozen until analyzed by ELISA at the conclusion of the reaction. The incubations were for 3 weeks (Hb) or 6 weeks (RNase, BSA).
ELISA detection of AGE products. The general method of Engvall (1981, Methods Enzymol. 70:419-439) was used to perform the ELISA. Typically, glycated protein samples were diluted to approximately 1.5 ug/ml in 0.1 M sodium carbonate buffer of pH 9.5 to 9.7. […] In order to minimize background readings, antibodies R479 used to detect glycated RNase were raised against glycated BSA, and antibodies R618 used to detect glycated BSA and glycated Hb were raised against glycated RNase. […] The p-nitrophenylphosphate substrate solution was then added (200 ul/well) to the plates, with the absorbance of the released p-nitrophenolate being monitored at 410 nm with a Dynatech MR 4000 microplate reader.

Cc1ncc(CO)c(CN)c1O [pyridoxamine]
CML, CEL or pentosidine content of kidney collagen [1]: not a significant decrease | gain in kidney weight [1]: partially inhibit the gain in kidney weight | FL in skin collagen, below untreated diabetic animals [1]: ~12% | decrease of CML, CEL and fluorescence content of skin collagen toward non-diabetic levels [1]: ~50% | reduction of half-time for digestion of collagen toward normal [1]: ~25% | body weight [1]: weighed slightly less than the untreated diabetic group | CML concentration in skin collagen [1]: 0.092±0.02 mmol/mol lysine | half-time for pepsin digestion of skin collagen [1]: 350 min | CEL in renal basement membrane collagen [1]: 0.08 ± 0.008 mmol/mol Lys | CML in renal basement membrane collagen [1]: 0.23 ±0.03 mmol/mol Lys | Pentosidine in renal basement membrane collagen [1]: 3.00 ± 0.90 μmol/mol Lys | decrease in collagen-linked fluorescence toward values in non-diabetic rats [1]: ~40% | urinary PM ([2]; 23 weeks, PM intake 801±22 μmol/day): 824 ± 44 µmol/day | plasma PM concentration ([2]; non-diabetic animals, PM(HCl)2 2 g/L in drinking water, from first week): ~6 µM | concentration at 21 week ([2]; 1 g/L in drinking water, Diabetic + PM (1 g/L)): 76 ± 18 µM | concentration at 21 week ([2]; 2 g/L in drinking water, Control + PM (2 g/L)): 6.3 ± 2.1 µM | concentration at 28 weeks ([2]; 1 g/L in drinking water): 106 ± 17 µM | inhibition of antigenic AGE formation (ELISA) [3]: more effective that aminoguanidine

Cc1ncc(C[n+]2csc(CCO[P@](=O)(O)OP(=O)(O)O)c2C)c(N)n1 [thiamine pyrophosphate]
inhibition of antigenic AGE formation (ELISA) [3]: more effective that aminoguanidine

N=C(N)NN [aminoguanidine, reference compound]
CML, CEL or pentosidine content of kidney collagen [1]: not a significant decrease | gain in kidney weight [1]: partially inhibit the gain in kidney weight | FL in skin collagen, below untreated diabetic animals [1]: ~12% | decrease of CML, CEL and fluorescence content of skin collagen toward non-diabetic levels [1]: ~50% | reduction of half-time for digestion of collagen toward normal [1]: ~25% | body weight [1]: weighed slightly less than the untreated diabetic group | CML concentration in skin collagen [1]: 0.10±0.02 mmol/mol lysine | half-time for pepsin digestion of skin collagen [1]: 300 min | CEL in renal basement membrane collagen [1]: 0.07 ± 0.008^C mmol/mol Lys | CML in renal basement membrane collagen [1]: 0.24 ± 0.05 mmol/mol Lys | Pentosidine in renal basement membrane collagen [1]: 2.47 ± 0.64^D μmol/mol Lys | decrease in collagen-linked fluorescence toward values in non-diabetic rats [1]: ~40% | concentration at 28 weeks ([2]; 1 g/L in drinking water): 87 ± 10 µM
